The source of these data is paper PMC11279897, “Isolation of Alpha-Glucosidase Inhibitors from the Panamanian Mangrove Plant Mora oleifera (Triana ex Hemsl.) Ducke” (Pharmaceuticals, 2024).

In test [1] the test system is alpha-glucosidase. As to the kind of experiment: Kinetics of alpha-glucosidase inhibition (Lineweaver-Burk plot). The test is classed as biochemical, Saccharomyces cerevisiae. To be noted: Lineweaver-Burk plots, two inhibitor concentrations, various PNPG concentrations. Here is the method:
To determine the mode of inhibition of the compounds, fixed amounts of alpha-glucosidase were incubated with increasing concentrations of PNPG at 37 °C for 15 min, both in the absence and presence of inhibitors. Subsequently, the reactions were stopped, the sample absorbances were measured, and then the values obtained were analyzed using the Lineweaver–Burk plot. For this assay, three evaluations were performed, one in the absence of the inhibitor and the other using different concentrations of the inhibitors (at concentrations equivalent to their respective IC50 values). Again, the evaluations of each compound were performed in triplicate.

Test [2] addresses alpha-glucosidase enzyme. In words: Inhibition of alpha-glucosidase assay (PNPG substrate, 96-well plate). To be noted: enzyme from Saccharomyces cerevisiae. The test is classed as biochemical. Here is the method: The assay was performed in 96-well plates. Both test samples and the positive control were dissolved in DMSO or MeOH. Test samples (20 μL) were added to their respective wells containing 150 μL of the enzyme (from Saccharomyces cerevisiae purchased from Sigma-Aldrich Co., St. Louis, MO, USA) solution (32 mU/mL), followed by incubation at 37 °C for 7 min. Subsequently, 150 μL of PNPG (4-Nitrophenyl-[…]-D-glucopyranoside, 2 mM) was introduced into each well, and the plate was further incubated at 37 °C for 20 min. The resulting absorbance, corresponding to the p-nitrophenol released during the reaction, was measured at 400 nm. All assays were performed in duplicate. The activity of the samples was calculated as a percentage relative to the control (DMSO or MeOH, instead of the sample solution), using the following equation: %Inhibition=(∆ Acontrol−∆ Asample)/∆ Acontrol×100%
ΔAcontrol: absorbance of the control—absorbance of the blank
ΔAsample: absorbance of the sample—absorbance of the sample blank.
The concentration necessary to achieve a 50% inhibition of enzyme activity (IC50) was calculated through regression analysis. Data obtained from alpha-glucosidase inhibition assays were expressed as the mean ± standard deviation (SD) of three replicates. Statistical analysis was performed using Excel 2019 (Microsoft, Seattle, WA, USA). Finally, a one-way analysis of variance (ANOVA) followed by Tukey’s post-test was used to evaluate possible differences between the means of each data. To determine significant differences, statistical significance was defined as p-values ≤ 0.05 [25].

By IC50 is commonly meant the point on the concentration scale where inhibition reaches its midpoint. For the molecule `CC[C@H](/C=C/[C@@H](C)[C@H]1CC[C@H]2[C@@H]3CC=C4C[C@@H](O)CC[C@]4(C)[C@H]3CC[C@]12C)C(C)C` [Compound 7, stigmasterol], the “mode of inhibition of alpha-glucosidase” value in test [1] is reported as “reversible competitive inhibition”. This molecule also gave an IC50 in test [2] of 163 µM.
`CC1(C)CC[C@]2(C)CC[C@]3(C)C(=CC[C@@H]4[C@@]5(C)CC[C@H](O)C(C)(C)[C@@H]5CC[C@]43C)[C@@H]2C1` [Compound 4, β-amyrin] yielded an IC50 in test [2] of 1.22 µM.
Same read-out and setting: next, `CCCCCCCCCCCCCCCC(=O)O` [Compound 5, palmitic acid]: 240 µM.
As to `C=C(C)[C@@H]1CC[C@]2(C)CC[C@]3(C)[C@H](CC[C@@H]4[C@@]5(C)CC[C@H](O)C(C)(C)[C@@H]5CC[C@]43C)[C@@H]12` [Compound 2, lupeol], the IC50 in test [2] is 1.05 µM.
On to `C=C(C)[C@@H]1CC[C@]2(C)CC[C@]3(C)[C@H](CC[C@@H]4[C@@]5(C)CCC(=O)C(C)(C)[C@@H]5CC[C@]43C)[C@@H]12` [Compound 1, lupenone], for which, in test [1], the “mode of inhibition of alpha-glucosidase” value is “reversible competitive inhibition”. In test [2], this molecule registered an IC50 of 0.72 µM.
Molecule `C[C@H]1[C@H](C)CC[C@]2(C)CC[C@]3(C)C(=CC[C@@H]4[C@@]5(C)CC[C@H](O)C(C)(C)[C@@H]5CC[C@]43C)[C@H]12` [Compound 3, α-amyrin] showed a 50% inhibitory concentration (IC50) in test [2] of 2.13 µM. In other words, the single-digit micromolar range.
As to `CC[C@H](CC[C@@H](C)[C@H]1CC[C@H]2[C@@H]3CC=C4C[C@@H](O)CC[C@]4(C)[C@H]3CC[C@]12C)C(C)C` [Compound 6, sitosterol], the “mode of inhibition of alpha-glucosidase” value in test [1] is “reversible competitive inhibition”. Further, the IC50 in test [2] came to 18.7 µM.
On to `C[C@H]1O[C@H](O[C@H]2[C@H](O)[C@@H](O)[C@@H](O[C@H]3[C@H](O)[C@@H](O)C(O)O[C@@H]3CO)O[C@@H]2CO)[C@H](O)[C@@H](O)[C@@H]1N[C@H]1C=C(CO)[C@@H](O)[C@H](O)[C@H]1O` (some centres unmarked) [acarbose, reference compound], for which the “mode of inhibition of alpha-glucosidase” value in test [1] is “competitive inhibition”.
